Tests used:
[1] = molecular target: T1, Human Indoleamine 2,3-dioxygenase (IDO) (Homo sapiens, UniProt P14902); assay: Human IDO enzymatic assay (kynurenine level); assay type: biochemical; conditions: 6 nM IDO, 10 μM L-Trp; geometric mean; read-out: IDO1 GMean: IC50 (μM) (Biochemical Assay)
T1 construct: His tag (N); made in house; host or cells: E. coli
Protocol: (§1) Human Indoleamine 2,3-dioxygenase (IDO) and Tryptophan 2,3-dioxygenase (TDO) enzymatic assay
(§2) Human IDO or TDO with N-terminal His tag is purified in E. coli. The IDO enzymatic assay is performed using 6 nM IDO and 10 μM L-Trp in the presence of 10 mM ascorbic acid, 5 μM methylene blue, 100 nM catalase and 0.01% Tween 20 in 50 mM sodium phosphate buffer (pH 6.5). 19 μL of above reaction mixture is added to wells of 384 well reaction plate containing […] of various concentrations of test compound or DMSO vehicle and incubated for 20 minutes at room temperature. The TDO enzymatic reaction assay is performed using 1 nM TDO and 350 μM L-Trp in the presence of 10 mM ascorbic acid, 0.4 μM methylene blue, 100 nM catalase and 0.01% Tween 20 in 50 mM sodium phosphate buffer (pH 6.5). 19 μL of above reaction mixture is added to wells of 384 well reaction plate containing 1 μL of various concentrations of test compound or DMSO vehicle and incubated for 70 minutes at room temperature. 16 wells containing all the components of reaction mixture and 5% DMSO serve as high control. 16 well containing all the components except enzyme of reaction mixture and 5% DMSO serves as low control. Both IDO and TDO enzymatic reactions are stopped by addition of […] of 30% TCA and incubated 30 minutes at 50° C. to hydrolyze N-formylkynurenine produced by IDO or TDO to kynurenine. Upon measuring the kynurenine level, the percentage inhibition is calculated at individual concentrations relative to high and low controls. The data is analyzed by using nonlinear regression to generate IC50 values.

[2] = molecular target: T2, Human Tryptophan 2,3-dioxygenase (TDO) (Homo sapiens, UniProt P48775); assay: Human TDO enzymatic assay (kynurenine level); assay type: biochemical; conditions: 1 nM TDO, 350 μM L-Trp; geometric mean; read-out: TDO GMean: IC50 (μM) (Biochemical Assay)
T2 construct: His tag (N); made in house; host or cells: E. coli
T2 sequence (P48775 whole entry): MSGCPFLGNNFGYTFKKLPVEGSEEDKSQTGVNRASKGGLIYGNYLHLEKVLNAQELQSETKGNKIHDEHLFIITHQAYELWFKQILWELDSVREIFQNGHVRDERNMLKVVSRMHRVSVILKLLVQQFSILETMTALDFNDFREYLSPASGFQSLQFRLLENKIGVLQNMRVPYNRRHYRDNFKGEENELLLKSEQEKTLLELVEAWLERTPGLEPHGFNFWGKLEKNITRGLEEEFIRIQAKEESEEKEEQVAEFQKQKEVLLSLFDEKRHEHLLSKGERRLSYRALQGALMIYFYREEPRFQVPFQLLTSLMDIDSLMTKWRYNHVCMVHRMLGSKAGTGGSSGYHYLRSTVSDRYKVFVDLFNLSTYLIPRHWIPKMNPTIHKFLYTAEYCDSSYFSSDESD
Protocol: as §1, §2

T1 sequence (P14902 whole entry): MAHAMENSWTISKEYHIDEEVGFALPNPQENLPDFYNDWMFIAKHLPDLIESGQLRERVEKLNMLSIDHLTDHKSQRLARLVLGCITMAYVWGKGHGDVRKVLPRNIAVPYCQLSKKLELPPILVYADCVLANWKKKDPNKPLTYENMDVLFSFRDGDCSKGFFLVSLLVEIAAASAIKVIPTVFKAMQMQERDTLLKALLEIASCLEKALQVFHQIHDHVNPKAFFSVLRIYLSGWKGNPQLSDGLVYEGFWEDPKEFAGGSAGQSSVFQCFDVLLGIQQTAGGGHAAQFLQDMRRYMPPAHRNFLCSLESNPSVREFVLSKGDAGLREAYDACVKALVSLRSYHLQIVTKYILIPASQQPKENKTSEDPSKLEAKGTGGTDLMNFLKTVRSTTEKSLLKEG

SMILES | IC50 [1] | IC50 [2]
CC(C)(C1CCN(C(=O)NCc2ccnnc2)CC1)[C@H](O)c1cc(Cl)cc2cn[nH]c12 [Compound P-0681, (S)-4-(1-(5-chloro-1H-indazol-7-yl)-1-hydroxy-2-methylpropan-2-yl)-N-(pyridazin-4-ylmethyl)piperidine-1-carboxamide] | 0.0001 to 10 µM | 0.0001 to 10 µM
O=C(CN1CCS(=O)(=O)CC1)N1CCC(C(F)(F)[C@H](O)c2c3c(cc4cn[nH]c24)CC3)CC1 [Compound P-0623, (R)-1-(4-(2-(5,6-dihydro-1H-cyclobuta[f]indazol-7-yl)-1,1-difluoro-2-hydroxyethyl)piperidin-1-yl)-2-(1,1-dioxidothiomorpholino) ethan-1-one] | 0.0001 to 10 µM | 0.0001 to 10 µM
CC(C)(C1CCN(/C(N)=N/C#N)CC1)C(O)c1cc(Cl)cc2cn[nH]c12 (stereo not drawn) [Compound P-0573, (E)-4-(1-(5-chloro-1H-indazol-7-yl)-1-hydroxy-2-methylpropan-2-yl)-N′-cyanopiperidine-1-carboximidamide] | 0.0001 to 10 µM | 0.0001 to 10 µM
CC(C)(C1CCN(C(N)=O)CC1)C(O)c1cc(Cl)cc2[nH]ncc12 (stereo not drawn) [Compound P-0606, 4-(1-(6-chloro-1H-indazol-4-yl)-1-hydroxy-2-methylpropan-2-yl)piperidine-1-carboxamide] | 0.0001 to 10 µM | 0.0001 to 10 µM
O=C(Cc1ccc(Cl)c(F)c1)N1CCC(C(F)(F)[C@H](O)c2c3c(cc4cn[nH]c24)CC3)CC1 [Compound P-0626, (R)-2-(4-chloro-3-fluorophenyl)-1-(4-(2-(5,6-dihydro-1H-cyclobuta[f]indazol-7-yl)-1,1-difluoro-2-hydroxyethyl)piperidin-1-yl) ethan-1-one] | 0.0001 to 10 µM | 0.0001 to 10 µM
OC(c1cccc(N2CCOCC2)c1)c1cccc2cncn12 (stereo not drawn) [Compound P-0069, imidazo[1,5-a]pyridin-5-yl(3-morpholinophenyl)methanol] | 10 to 100 µM | 10 to 100 µM
O=C(c1ccc(Cl)cn1)N1CCC(C(F)(F)[C@H](O)c2c3c(cc4cn[nH]c24)CC3)CC1 [Compound P-0621, (R)-(5-chloropyridin-2-yl)(4-(2-(5,6-dihydro-1H-cyclobuta[f]indazol-7-yl)-1,1-difluoro-hydroxyethyl)piperidin-1-yl) methanone] | 0.0001 to 10 µM | 0.0001 to 10 µM
CNC(=O)CNC(=O)N1CCC(C(C)(C)[C@H](O)c2cc(Cl)cc3cn[nH]c23)CC1 [Compound P-0583, (S)-4-(1-(5-chloro-1H-indazol-7-yl)-1-hydroxy-2-methylpropan-2-yl)-N-(2-(methylamino)-2-oxoethyl)piperidine-1-carboxamide] | 0.0001 to 10 µM | 0.0001 to 10 µM
N#CCC(=O)N1CCC(C(F)(F)[C@H](O)c2c3c(cc4cn[nH]c24)CC3)CC1 [Compound P-0613, (R)-3-(4-(2-(5,6-dihydro-1H-cyclobuta[f]indazol-7-yl)-1,1-difluoro-2-hydroxyethyl)piperidin-1-yl)-3-oxopropanenitrile] | 0.0001 to 10 µM | 0.0001 to 10 µM
CC(C)(O)CNC(=O)N1CCC(C(C)(C)[C@H](O)c2cc(Cl)cc3cn[nH]c23)CC1 [Compound P-0666, (S)-4-(1-(5-chloro-1H-indazol-7-yl)-1-hydroxy-2-methylpropan-2-yl)-N-(2-hydroxy-methylpropyl) piperidine-1-carboxamide] | 0.0001 to 10 µM | 0.0001 to 10 µM
CC(C)(C1CCN(C(=O)NCc2ccc(C#N)nc2)CC1)[C@H](O)c1cc(Cl)cc2cn[nH]c12 [Compound P-0590, (S)-4-(1-(5-chloro-1H-indazol-7-yl)-1-hydroxy-2-methylpropan-2-yl)-N-((6-cyanopyridin-3-yl)methyl)piperidine-1-carboxamide] | 0.0001 to 10 µM | 0.0001 to 10 µM
CC(C)(C1CCN(C(=O)CN2CCOCC2)CC1)C(O)c1cc(Cl)cc2[nH]ncc12 (stereo not drawn) [Compound P-0609, 1-(4-(1-(6-chloro-1H-indazol-4-yl)-1-hydroxy-2-methylpropan-2-yl)piperidin-1-yl)-2-morpholinoethan-1-one] | 0.0001 to 10 µM | 0.0001 to 10 µM
CC(C)NC(=O)N1CCC(C(C)(C)[C@H](O)c2cc(Cl)cc3cn[nH]c23)CC1 [Compound P-0594, (S)-4-(1-(5-chloro-1H-indazol-7-yl)-1-hydroxy-2-methylpropan-2-yl)-N-isopropylpiperidine-1-carboxamide] | 0.0001 to 10 µM | 0.0001 to 10 µM
C[C@@H](CO)NC(=O)N1CCC(C(C)(C)[C@H](O)c2cc(Cl)cc3cn[nH]c23)CC1 [Compound P-0669, 4-((S)-1-(5-chloro-1H-indazol-7-yl)-1-hydroxy-2-methylpropan-2-yl)-N-((S)-1-hydroxypropan-2-yl)piperidine-1-carboxamide] | 0.0001 to 10 µM | 0.0001 to 10 µM
O=C(CC1CCS(=O)(=O)CC1)N1CCC(C(F)(F)[C@H](O)c2c3c(cc4cn[nH]c24)CC3)CC1 [Compound P-0624, (R)-1-(4-(2-(5,6-dihydro-1H-cyclobuta[f]indazol-7-yl)-1,1-difluoro-2-hydroxyethyl)piperidin-1-yl)-2-(1,1-dioxidotetrahydro-2H-thiopyran-4-yl)ethan-1-one] | 0.0001 to 10 µM | 0.0001 to 10 µM
CC(C)(C1CCN(C(=O)N[C@H]2C[C@H](O)C2)CC1)[C@H](O)c1cc(Cl)cc2cn[nH]c12 [Compound P-0600, 4-((S)-1-(5-chloro-1H-indazol-7-yl)-1-hydroxy-2-methylpropan-2-yl)-N-((1r,3S)-3-hydroxycyclobutyl) piperidine-1-carboxamide] | 0.0001 to 10 µM | 0.0001 to 10 µM
CC(C)(C1CCN(C(=O)NCCNS(C)(=O)=O)CC1)[C@H](O)c1cc(Cl)cc2cn[nH]c12 [Compound P-0677, (S)-4-(1-(5-chloro-1H-indazol-7-yl)-1-hydroxy-2-methylpropan-2-yl)-N-(2-(methylsulfonamido)ethyl)piperidine-1-carboxamide] | 0.0001 to 10 µM | 0.0001 to 10 µM
O=C(C1CC1)N1CCC(C(F)(F)[C@H](O)c2c3c(cc4cn[nH]c24)CC3)CC1 [Compound P-0611, (R)-cyclopropyl(4-(2-(5,6-dihydro-1H-cyclobuta[f]indazol-7-yl)-1,1-difluoro-2-hydroxyethyl)piperidin-1-yl)methanone] | 0.0001 to 10 µM | 0.0001 to 10 µM
O=C(c1ccc(C(F)(F)F)nc1)N1CCC(C(F)(F)[C@H](O)c2c3c(cc4cn[nH]c24)CC3)CC1 [Compound P-0620, (R)-(4-(2-(5,6-dihydro-1H-cyclobuta[f]indazol-7-yl)-1,1-difluoro-2-hydroxyethyl)piperidin-1-yl)(6-(trifluoromethyl)pyridin-3-yl)methanone] | 0.0001 to 10 µM | 0.0001 to 10 µM
OC(c1ccccc1C(F)(F)F)c1cccc2cncn12 (stereo not drawn) [Compound P-0067, imidazo[1,5-a]pyridin-5-yl(2-(trifluoromethyl)phenyl)methanol] | 100 to 200 µM | 0.0001 to 10 µM
CCC(=O)N1CCC(C(F)(F)[C@H](O)c2cc(Cl)cc3cn[nH]c23)CC1 [Compound P-0574, (R)-1-(4-(2-(5-chloro-1H-indazol-7-yl)-1,1-difluoro-2-hydroxyethyl)piperidin-1-yl)propan-1-one] | 0.0001 to 10 µM | 0.0001 to 10 µM
CN(C)c1cccc(C(O)c2cccc3cncn23)c1 (stereo not drawn) [Compound P-0072, (3-(dimethylamino)phenyl)(imidazo[1,5-a]pyridin-5-yl)methanol] | 10 to 100 µM | 10 to 100 µM
OC(c1ccc(Cl)c2cn[nH]c12)C1CCCCC1 (stereo not drawn) [Compound P-0003, (4-chloro-1H-indazol-7-yl)(cyclohexyl)methanol] | 0.0001 to 10 µM | 0.0001 to 10 µM
OC(c1ccccc1F)c1cccc2cncn12 (stereo not drawn) [Compound P-0066, (2-fluorophenyl)(imidazo[1,5-a]pyridin-5-yl)methanol] | 0.0001 to 10 µM | 0.0001 to 10 µM
CCC(=O)N1CCC(C(F)(F)C(O)c2cc(Cl)cc3[nH]ncc23)CC1 (stereo not drawn) [Compound P-0577, 1-(4-(2-(6-chloro-1H-indazol-4-yl)-1,1-difluoro-2-hydroxyethyl)piperidin-1-yl) propan-1-one] | 0.0001 to 10 µM | 0.0001 to 10 µM
O=C(Cc1ccc(F)c(Cl)c1)N1CCC(C(F)(F)[C@H](O)c2c3c(cc4cn[nH]c24)CC3)CC1 [Compound P-0625, (R)-2-(3-chloro-4-fluorophenyl)-1-(4-(2-(5,6-dihydro-1H-cyclobuta[f]indazol 7-yl)-1,1-difluoro-2-hydroxyethyl)piperidin-1-yl) ethan-1-one] | 0.0001 to 10 µM | 0.0001 to 10 µM
C[C@H](O)CNC(=O)N1CCC(C(C)(C)[C@H](O)c2cc(Cl)cc3cn[nH]c23)CC1 [Compound P-0671, 4-((S)-1-(5-chloro-1H-indazol-7-yl)-1-hydroxy-2-methylpropan-2-yl)-N-((S)-2-hydroxypropyl) piperidine-1-carboxamide] | 0.0001 to 10 µM | 0.0001 to 10 µM

— patent US10508085B2, “Compounds and methods for IDO and TDO modulation, and indications therefor” (Plexxikon Inc., priority 2016, dated 2019)
